In patent US20230234936A1, “COMPOUND FOR TARGETING AND DEGRADING PROTEIN, AND PREPARATION METHOD THEREFOR AND USE THEREOF” (SHANGHAI LEADINGTAC PHARMACEUTICAL CO., LTD., priority 2020, published 2023):

Key:
[1] = molecular target: T1, IRAK4 protein in THP-1 cells (Homo sapiens, UniProt Q9NWZ3); assay: Degradation of IRAK4 in THP-1 cells (Western blot); format: cell-based; settings: 24 hours, compound 1-3000 nM
T1 construct: endogenous in cells; host or cells: THP-1
T1 sequence (Q9NWZ3 1-460): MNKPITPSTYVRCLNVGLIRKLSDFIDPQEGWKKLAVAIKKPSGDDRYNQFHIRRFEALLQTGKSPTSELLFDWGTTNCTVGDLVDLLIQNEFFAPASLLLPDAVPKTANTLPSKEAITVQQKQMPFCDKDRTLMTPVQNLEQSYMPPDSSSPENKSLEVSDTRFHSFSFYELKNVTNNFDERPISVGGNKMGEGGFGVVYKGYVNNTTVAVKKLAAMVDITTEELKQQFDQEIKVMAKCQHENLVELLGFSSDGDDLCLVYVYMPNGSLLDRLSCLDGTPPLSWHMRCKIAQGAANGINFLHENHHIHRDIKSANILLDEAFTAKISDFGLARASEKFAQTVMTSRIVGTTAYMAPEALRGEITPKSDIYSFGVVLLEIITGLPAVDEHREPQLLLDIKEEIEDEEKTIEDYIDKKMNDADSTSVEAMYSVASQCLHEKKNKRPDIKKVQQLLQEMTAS
Outline: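 THP-1 cells (5×10^5/well) treated 24 h with compound at 1–3000 nM final. IRAK4 in lysates quantified by Western blot, normalized to internal reference and compared with control to give degradation rate; DC50 and Dmax from nonlinear fit of log concentration.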

[2] = molecular target: T2, IRAK4 kinase (Homo sapiens, UniProt Q9NWZ3); assay: IRAK4 kinase activity test (KinEASE-STK S1 HTRF kit); format: biochemical; settings: 2.5 nM kinase, 1 μM biotinylated polypeptide substrate, 7 μM ATP, 37° C. 120 min
T2 sequence (Q9NWZ3 1-460): T1 sequence (Q9NWZ3 1-460)
Outline: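 Compound in DMSO, serially diluted to 10000–0.038 nM final, incubated with 2.5 nM kinase, 1 μM biotinylated peptide substrate and 7 μM ATP at 37° C for 120 min. Eu-anti-phospho-Ser/Thr antibody plus streptavidin-XL665 stopped the reaction (1 h RT). HTRF 665/620 nm ratio gave % inhibition versus control; IC50 from nonlinear log-concentration fit.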

| DC50 [1] | IC50 [2] | Dmax [1] | Compound |
| --- | --- | --- | --- |
| 40.6 nM | 15.2 nM |  | COc1cc2nn(C3CCN(CC4CCN(CCOc5ccc6c(c5)C(=O)N(C5CCC(=O)NC5=O)C6=O)CC4)CC3)cc2cc1NC(=O)c1cccc(C(F)(F)F)n1 (centres unmarked) [Control group 2, N-(2-(1-((1-(2-((2-(2,6-dioxopiperidin-3-yl)-1,3-dioxoisoindol-5-yl)oxy)ethyl)piperidin-4-yl)methyl)piperidin-4-yl)-6-methoxy-2H-indazol-5-yl)-6-(trifluoromethyl) pyridinecarboxamide, reference compound] |
| 19.8 nM | 16.2 nM | 75.3% | CN(CC1CCN(c2cccc3c2C(=O)N(C2CCC(=O)NC2=O)C3=O)CC1)C[C@H]1CC[C@H](n2cc3cc(NC(=O)c4cccc(C(F)(F)F)n4)c(C(C)(C)O)cc3n2)CC1 (some centres unmarked) [Control group 3, N-(2-((1r,4r)-4-((((1-(2-(2,6-dioxopiperidin-3-yl)-1,3-dioxoisoindolin-4-yl)piperidin-4-yl)methyl) (methyl)amino)methyl)cyclohexyl)-6-(2-hydroxyprop-2-yl)-2H-indazol-5-yl)-6-(trifluoromethyl) pyridinecarboxamide, reference compound] |
| 2.6 nM | 14 nM | 97.1% | CC(C)(O)c1cc2nn(C3CCN(CC4CCC5(CC4)CCN(C(=O)c4ccc(Cl)c(N6CCC(=O)NC6=O)c4)CC5)CC3)cc2cc1NC(=O)c1cccc(C(F)(F)F)n1 [Example 31, N-(2-(1-((3-(4-chloro-3-(2,4-dioxotetrahydro-pyrimidin-1 (2H)-yl)benzoyl)-3-azaspiro [5.5]undec-9-yl)methyl)piperdin-4-yl)-6-(2-hydroxyprop-2-yl)-2H-indazol-5-yl)-6-(trifluoro-methyl) pyridinecarbox-amide] |
